From patent publication US5652222A, “Selective inhibition of leukemic cell proliferation by bcr-abl antisense oligonucleotides” (Temple University-of The Commonwealth System of Higher …, priority 1993, dated 1997)

Legend:
[1] = system: normal hematopoietic progenitor cells (normal bone marrow MNC); assay: CFU-GM colony formation of normal hematopoietic progenitor cells; assay type: cell-based, human; conditions: Table 3; 40 μg/ml at 0 h, 20 μg/ml 18 h later; 12 days; mean ± SD; control 263 ± 10
Description: Normal bone marrow mononuclear cells (MNC) were obtained by aspiration from consenting volunteers and enriched for hematopoietic progenitors as previously reported by numerous investigators (Zamecnick et al., Proc. Natl. Acad. Sci. U.S.A. 83, 4143-4147 (1986); Caracciolo et al., J. Clin. Invest. 85, 55-61 (1990)). In brief, marrow cells were subjected to Ficoll-Hypaque density gradient sedimentation and then depleted of adherent monocyte-macrophage and T-lymphocytes by adherence to plastic Petri dishes and rosetting with neuraminidase-treated sheep red blood cells, respectively. Philadelphia chromosome-positive blast cells were isolated by Ficoll-Hypaque density gradient sedimentation from a CML patient in blast crisis (L-6 type junction). […] The residual non-blast cells had the morphological appearance of small lymphocytes. 25,000 MNC and 25,000 CML blast cells were combined and incubated with bcr-abl breakpoint-Specific antisense oligomer (SEQ ID NO:3) (40 μg/ml at h 0; 20 μg/ml 18 hours later) or with a 4 nucleotide mismatch bcr-abl antisense oligomer (SEQ ID NO:2) (40 μg/ml at 0 h; 20 μg/ml 18 hours later) or left untreated. […] At the end of the incubation period colonies were counted. […]

bcr-abl transcripts = assay: bcr-abl transcript in residual colonies (RT-PCR); assay type: cell-based, human; conditions: colonies arising from mixed cell populations of Example 3
Procedure: To provide unambiguous evidence of the elimination of Philadelphia chromosome blast cells, residual cells from Example 3 were evaluated for the expression of bcr-abl transcripts, since the levels of this transcript should reflect the number of surviving leukemia cells. For this purpose, total RNA was isolated from a pool of colonies from Example 3, and the levels of bcr-abl transcripts were evaluated. Levels of β2 -microglobulin transcript were also determined as a control. The β2 -microglobulin gene is expressed independent of cell cycle.
Accordingly, bcr-abl and β2 -microglobulin transcripts were reverse-transcribed and amplified in the presence of specific primers and Taq polymerase as described by Rappollee, Science 241, 708-712 (1988). The amplification products were separated on a 2% agarose gel and transferred to a nitrocellulose filter, which was hybridized with a synthetic 40-nucleotide c-abl fragment and a 40-nucleotide β2 -microglobulin fragment and labeled with [γ-^32 P]-ATP and polynucleotide kinase. The c-abl probe recognizes the amplified 257-nucleotide sequence of FIG. 1, which contains the L-6 type bcr-abl junction. The β2 -microglobulin probe recognizes the 195-nucleotide sequence contained within 5' and 3' β2 -microglobulin primers (Id.; Suggs et al., Proc. Natl. Acad. Sci. U.S.A. 78, 6613 (1981)).

BV173 cells = assay: Survival of leukemic SCID mice; assay type: in vivo, SCID mice (human leukemic cells); conditions: treatment starting from days +7 or +21 (FIG. 12)
Description: To determine the lethal dose of BV173 cells in the SCID mice, we injected from 10^3 to 10^7 cells into the tail vein and monitored survival at various times postinjection. Mice injected with 10^7, 10^6, 10^5, or 10^4 BV173 cells died 8-10, 9-12, 13-15, or 14-22 weeks later, respectively, due to leukemia cell growth as confirmed on necroscopy. Spleen weight was about 40 times higher than that in noninjected SCID mice while liver and kidneys had numerous metastases and were enlarged 10-fold as compared to noninjected mice. Mice injected with 10^3 BV173 cells were still alive 35 weeks post implantation, and leukemia was never detected. From this study, 10^6 cells was taken as a lethal dose.
To determine whether synthetic phosphorothioate oligodeoxynucleotides targeted against the bcr-abl junction of […] cells would modify the disease process in SCID mice. SCID mice were injected with 10^6 BV173 cells. The mice then received 1 mg of sense (ATCAATAAGG AAGCCCTTCAGCG, SEQ ID NO:34) or antisense ([…] ATTGAT, SEQ ID NO:29) b2/a2 bcr-abl phosphorothioate oligodeoxynucleotides (pyrogen leven <1 Eu/mg; 0.2 ml in Iscove modified Dulbecco medium in 5-10 seconds) intravenously for each of 9 consecutive days, beginning either 7 or 21 days after introducing 10^6 BV173 cells. Control mice received the diluent (iscove's modified Dulbecco medium) only. These time points approximate distinct disease stages in humans.

Substance	Colonies or Clusters, CFU-GM [1]	bcr-abl transcript in RNA from colonies (bcr-abl transcripts)	mortality / survival outcome (BV173 cells)	survival after i.v. injection of 10^6 BV173 cells (BV173 cells)
SEQ ID NO:3: synthetic 18-mer GAAGGGCTTC TTCCTTAT specific for the 18-nucleotide target sequence of the L-6 bcr-abl junction (antisense GAAGGGCTTCTTCCTTAT; chemistry not given here)	253 ± 35 colonies or clusters	No bcr-abl transcript was detected		
SEQ ID NO:34: phosphorothioate sense sequence ATCAATAAGGAAGCCCTTCAGCG (23-mer b2a2 sense) (sense ATCAATAAGGAAGCCCTTCAGCG; all phosphorothioate, sugars by position and methylation of C not given here)			died with diffuse leukemia	10-13 weeks
